Laboratory results reported in patent US12171230B2, “Herbicidal compositions” (Bayer Aktiengesellschaft, priority 2018, dated 2024).
Where “and” joins values, the source holds several entries; their conditions need not be identical. Equal entries are not always repeated.

How the values were obtained:
Format in all cases: in vivo
Ephilobium hirsutum = test: Post-emergence herbicidal action against Ephilobium hirsutum; conditions: 100 g of a.i./ha
Method: (§1) When the observed efficacies exceed the formal sum total of the values of the tests with individual applications, they also exceed the expected value according to Colby, which is calculated using the formula below and is likewise regarded as an indication of synergism (cf. S. R. Colby; in Weeds 15 (1967) p. 20 to 22): E^C=A+B−([…])
(§2) Here: • A=efficacy of the active compound (A) in % at an application rate of a g a.i./ha; • B=efficacy of the active compound (B) in % at an application rate of b g a.i./ha; • E^C=expected value of the effect of the combination (A)+(B) in % at the combined application rate a+b g a.i./ha.
Seeds or rhizome pieces of mono- and dicotyledonous weeds are placed in sandy loam in pots, covered with soil and grown in a greenhouse under good growth conditions (temperature, air humidity, water supply). Three weeks after sowing, the test plants were treated at the three-leaf stage with the compositions according to the invention. The compositions according to the invention formulated as spray powders or as emulsion concentrates were sprayed onto the green plant parts in various dosages with an application rate of 300 to 800 l/ha of water (equivalent). After the test plants have been left to stand in the greenhouse under optimal growth conditions for about 3 to 4 weeks, the action of the preparations is scored visually in comparison to untreated controls. […]

Ranunculus repens = test: Post-emergence herbicidal action against Ranunculus repens; conditions: 100 g of a.i./ha
Method: as §1, §2
(§3) Seeds or rhizome pieces of mono- and dicotyledonous weeds are placed in sandy loam in pots, covered with soil and grown in a greenhouse under good growth conditions (temperature, air humidity, water supply). Three weeks after sowing, the test plants were treated at the three-leaf stage with the compositions according to the invention. The compositions according to the invention formulated as spray powders or as emulsion concentrates were sprayed onto the green plant parts in various dosages with an application rate of 300 to 800 l/ha of water (equivalent). […] The compositions according to the invention also have good post-emergence herbicidal activity against a broad spectrum of economically important gramineous and broadleaf weeds.

Viola arvensis = test: Post-emergence herbicidal action against Viola arvensis; conditions: 100 g of a.i./ha
Method: as §1, §2, §3

Ipomoea hederacea = test: Post-emergence herbicidal action against Ipomoea hederacea; conditions: 100 g of a.i./ha
Method: as §1, §2
Seeds or rhizome pieces of mono- and dicotyledonous weeds are placed in sandy loam in pots, covered with soil and grown in a greenhouse under good growth conditions (temperature, air humidity, water supply). Three weeks after sowing, the test plants were treated at the three-leaf stage with the compositions according to the invention. The compositions according to the invention formulated as spray powders or as emulsion concentrates were sprayed onto the green plant parts in various dosages with an application rate of 300 to 800 l/ha of water (equivalent). After the test plants have been left to stand in the greenhouse under optimal growth conditions for about 3 to 4 weeks, the action of the preparations is scored visually in comparison to untreated controls. The compositions according to the invention also have good post-emergence herbicidal activity against a broad spectrum of economically important gramineous and broadleaf weeds.

Centaurea cyano = test: Post-emergence herbicidal action against Centaurea cyano
In short: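 Formulations (spray powders or emulsion concentrates) applied at various doses onto foliage using 300 to 800 l/ha water; plants treated at three-leaf stage, three weeks post-sowing in sandy loam under greenhouse conditions.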

Alopecurus myosuroides [1] = test: Post-emergence herbicidal action against Alopecurus myosuroides
Phalaris minor [2] = test: Post-emergence herbicidal action against Phalaris minor
Bromus sterilis [3] = test: Post-emergence herbicidal action against Bromus sterilis; conditions: 1 g of a.i./ha
Lolium rigidum = test: Post-emergence herbicidal action against Lolium rigidum
[4] = tested on: Lolium rigidum (resistant biotype); test: Post-emergence herbicidal action against Lolium rigidum (resistant biotype)
Alopecurus myosuroides [5] = test: Post-emergence herbicidal action against Alopecurus myosuroides; remark: listed apart in the source
Phalaris minor [6] = test: Post-emergence herbicidal action against Phalaris minor; remark: listed apart in the source
Bromus sterilis [7] = test: Post-emergence herbicidal action against Bromus sterilis
Viola tricolor [8] = test: Post-emergence herbicidal action against Viola tricolor
Abutilon theophrasti = test: Post-emergence herbicidal action against Abutilon theophrasti; conditions: 100 g of a.i./ha
Viola tricolor [9] = test: Post-emergence herbicidal action against Viola tricolor; remark: listed apart in the source
Lysimachia nummularia = test: Post-emergence herbicidal action against Lysimachia nummularia; conditions: 45 DAT; 100 g a.i./ha
Veronica hederifolia = test: Post-emergence herbicidal action against Veronica hederifolia; conditions: 28 DAT; 1 g a.i./ha
Polygonum convolvulus = test: Post-emergence herbicidal action against Polygonum convolvulus
Description: The following abbreviations are used in the description and the tables that follow: • g of a.i./ha=grams of active substance (active ingredient) (=100% active compound) per hectare; • The sum total of the effects of the individual applications is reported under E^A; • expected values according to Colby are each reported under E^C.
The rating period is reported in days after application (DAT).

SMILES: C=C[C@]1(C(=O)N[C@H]2CO[C@@H](C(=O)OC)C2)CC(c2cc(F)cc(F)c2)=NO1 (relative stereo) [Compound A3, methyl rel-(2R,4R)-4-[[(5S)-3-(3,5-difluorophenyl)-5-vinyl-4H-isoxazole-5-carbonyl]amino]tetrahydrofuran-2-carboxylate]
- Herbicidal action 43 DAT [%] against Ephilobium hirsutum (Ephilobium hirsutum): 77%
- Herbicidal action 43 DAT [%] against Ranunculus repens (Ranunculus repens): 82%
- Herbicidal action 43 DAT [%] against Viola arvensis (Viola arvensis): 50%
- Herbicidal action 37 DAT against Ipomoea hederacea (Ipomoea hederacea): 8%
- Herbicidal action 37 DAT [%] against Ipomoea hederacea (Ipomoea hederacea; post-emergence): 8%
- Herbicidal action 14 DAT against Centaurea cyanus (Centaurea cyano; 1 g of a.i./ha): 20%
- Herbicidal action 28 DAT against Centaurea cyanus (Centaurea cyano; 1 g of a.i./ha): 10% and 0%
- Herbicidal action in [%] 14 DAT against Centaurea cyanus (Centaurea cyano; 1 g of a.i./ha): 30%
- Herbicidal action in [%] 28 DAT against Centaurea cyanus (Centaurea cyano; 1 g of a.i./ha): 10%
- Herbicidal action 14 DAT against Centaurea cyanus (Centaurea cyano; 4 g of a.i./ha): 50%
- Herbicidal action 28 DAT against Centaurea cyanus (Centaurea cyano; 4 g of a.i./ha): 20%
- Herbicidal action in [%] 14 DAT against Centaurea cyanus (Centaurea cyano; 4 g of a.i./ha): 50%
- Herbicidal action in [%] 28 DAT against Centaurea cyanus (Centaurea cyano; 4 g of a.i./ha): 50%
- Herbicidal action against Centaurea cyanus (Centaurea cyano; 14 DAT, 16 g of a.i./ha): 80%
- Herbicidal action in [%] 14 DAT against Centaurea cyanus (Centaurea cyano; 16 g of a.i./ha): 70%
- Herbicidal action in [%] 28 DAT against Centaurea cyanus (Centaurea cyano; 16 g of a.i./ha): 40% and 70%
- Herbicidal action in [%] 28 DAT against Centaurea cyano (Centaurea cyano; 16 g of a.i./ha, post-emergence): 70%
- Herbicidal action against Centaurea cyanus (Centaurea cyano; 28 DAT, 16 g of a.i./ha): 40%
- Herbicidal action 28 DAT against Centaurea cyanus (Centaurea cyano; (Z61) post-emergence, g of a.i./ha: 1, 270, 90, 1 + 270, 1 + 90): 0%
- Herbicidal action in [%] 14 DAT against Alopecurus myosuroides (Alopecurus myosuroides [1]; 1 g of a.i./ha): 15% and 30%
- Herbicidal action in [%] 28 DAT against Alopecurus myosuroides (Alopecurus myosuroides [1]; 1 g of a.i./ha): 15% and 10%
- Herbicidal action in [%] 14 DAT against Alopecurus myosuroides (Alopecurus myosuroides [1]; 1 g of a.i./ha, second 14 DAT block): 35%
- Herbicidal action in [%] 14 DAT against Alopecurus myosuroides (Alopecurus myosuroides [1]; 4 g of a.i./ha): 90% and 75%
- Herbicidal action in [%] 28 DAT against Alopecurus myosuroides (Alopecurus myosuroides [1]; 4 g of a.i./ha): 50% and 60%
- Herbicidal action in [%] 28 DAT against Alopecurus myosuroides (Alopecurus myosuroides [1]; 16 g of a.i./ha): 90%
- Herbicidal action against Phalaris minor (Phalaris minor [2]; 14 DAT, 1 g of a.i./ha): 10%
- Herbicidal action against Phalaris minor (Phalaris minor [2]; 14 DAT, 4 g of a.i./ha): 90%
- Herbicidal action against Phalaris minor (Phalaris minor [2]; 14 DAT, 16 g of a.i./ha): 85%
- Herbicidal action against Phalaris minor (Phalaris minor [2]; 28 DAT, 1 g of a.i./ha): 0%
- Herbicidal action against Phalaris minor (Phalaris minor [2]; 28 DAT, 4 g of a.i./ha): 70%
- Herbicidal action against Phalaris minor (Phalaris minor [2]; 28 DAT, 16 g of a.i./ha): 40%
- Herbicidal action in [%] 14 DAT against Bromus sterilis (Bromus sterilis [3]): 15% and 30%
- Herbicidal action in [%] 28 DAT against Bromus sterilis (Bromus sterilis [3]): 15%
- Herbicidal action in [%] 14 DAT against Lolium rigidum (Lolium rigidum; 1 g of a.i./ha): 35% and 40%
- Herbicidal action in [%] 28 DAT against Lolium rigidum (Lolium rigidum; 1 g of a.i./ha): 15% and 10%
- Herbicidal action in [%] 14 DAT against Lolium rigidum (Lolium rigidum; 4 g of a.i./ha): 85%
- Herbicidal action in [%] 28 DAT against Lolium rigidum (Lolium rigidum; 4 g of a.i./ha): 50% and 70%
- Herbicidal action in [%] 14 DAT against Lolium rigidum (resistant biotype) ([4]; 1 g of a.i./ha): 15% and 30%
- Herbicidal action in [%] 28 DAT against Lolium rigidum (resistant biotype) ([4]; 1 g of a.i./ha): 0%
- Herbicidal action in [%] 14 DAT against Lolium rigidum (resistant biotype) ([4]; 4 g of a.i./ha): 40% and 60%
- Herbicidal action against Alopecurus myosuroides (Alopecurus myosuroides [5]; 14 DAT, 1 g of a.i./ha): 15%
- Herbicidal action against Alopecurus myosuroides (Alopecurus myosuroides [5]; 14 DAT, 4 g of a.i./ha): 90%
- Herbicidal action against Alopecurus myosuroides (Alopecurus myosuroides [5]; 28 DAT, 1 g of a.i./ha): 15%
- Herbicidal action against Alopecurus myosuroides (Alopecurus myosuroides [5]; 28 DAT, 4 g of a.i./ha): 50%
- Herbicidal action in [%] 14 DAT against Phalaris minor (Phalaris minor [6]; 1 g of a.i./ha): 10% and 20%
- Herbicidal action in [%] 28 DAT against Phalaris minor (Phalaris minor [6]; 1 g of a.i./ha): 0% and 10%
- Herbicidal action in [%] 14 DAT against Phalaris minor (Phalaris minor [6]; 4 g of a.i./ha): 90% and 85%
- Herbicidal action in [%] 28 DAT against Phalaris minor (Phalaris minor [6]; 4 g of a.i./ha): 70%
- Herbicidal action in [%] 14 DAT against Phalaris minor (Phalaris minor [6]; 16 g of a.i./ha): 85%
- Herbicidal action against Bromus sterilis (Bromus sterilis [7]; 14 DAT, 1 g of a.i./ha): 15%
- Herbicidal action against Bromus sterilis (Bromus sterilis [7]; 14 DAT, 4 g of a.i./ha): 85%
- Herbicidal action against Bromus sterilis (Bromus sterilis [7]; 28 DAT, 1 g of a.i./ha): 15%
- Herbicidal action in [%] 14 DAT against Viola tricolor (Viola tricolor [8]; 1 g of a.i./ha): 50%
- Herbicidal action in [%] 28 DAT against Viola tricolor (Viola tricolor [8]; 1 g of a.i./ha): 15%
- Herbicidal action in [%] 28 DAT against Viola tricolor (Viola tricolor [8]; 4 g of a.i./ha): 30%
- Herbicidal action 37 DAT [%] against Abutilon theophrasti (Abutilon theophrasti): 75%
- Herbicidal action against Viola tricolor (Viola tricolor [9]; 14 DAT, 1 g of a.i./ha): 50%
- Herbicidal action against Viola tricolor (Viola tricolor [9]; 14 DAT, 16 g of a.i./ha): 85%
- Herbicidal action against Viola tricolor (Viola tricolor [9]; 28 DAT, 1 g of a.i./ha): 15%
- Herbicidal action against Viola tricolor (Viola tricolor [9]; 28 DAT, 16 g of a.i./ha): 20%
- Herbicidal action (Lysimachia nummularia): 18%
- Herbicidal action (Veronica hederifolia): 30%

SMILES: O=C(Nc1ccc(F)cc1F)c1cccnc1Oc1cccc(C(F)(F)F)c1 [(B2.18) Diflufenican]
- Herbicidal action 21 DAT against Polygonum convolvulus (Polygonum convolvulus; g of a.i./ha: 90, 30, 45, 45 + 90, 45 + 30, 30 g of a.i./ha): 10%
- Herbicidal action 21 DAT against Polygonum convolvulus (Polygonum convolvulus; g of a.i./ha: 90, 30, 45, 45 + 90, 45 + 30, 90 g of a.i./ha): 20%
